Numbered stars: 1 amine (or outer) side, 2 acyl side, 3 side chain; on linkers, the order of the positions; unused ones are H or OH. Bridge positions count the residues as written; N and C are the ends. Square brackets hold non-standard residues; d marks the D form. Peptide text beside a SMILES is read from it. Abu(4-yl) = O=C([C@H](CC[*:3])N[*:1])[*:2]; hCys = N[C@@H](CCS)C(=O)O
Experiments:
[1] = biological target: anticardiolipin antibody (serum of patient ACA-6501); test: competitive ELISA, binding of patient ACA-6501 serum to cardiolipin/β2-GPI coated plate; design: species or system human; conditions: for IC50: amount of peptide that inhibited the human serum's binding by 50%, serum of patient ACA-6501 (GPL score 1500)
Experimental: (§1) The binding affinities of a number of the thioether cyclic polypeptides of the present invention to anticardiolipin antibody were determined by a competitive ELISA (i.e., enzyme-linked immunosorbent assay) and compared with binding affinities of the corresponding disulfide cyclic polypeptides (e.g., 3G3, 2G3, and G3).
(§2) Of 96 wells of a flat-bottom Immulon I microtiter plate (Dynatech Labs, Alexandria, Va.), 94 wells were coated with […] cardiolipin per well in 30 mL, of ethanol. The remaining two wells were used as controls and each received 30 mL, of ethanol. After overnight evaporation at 4° C., the plate was blocked for 2 hours at room temperature with 200 mL of 5% (w/v) fish gelatin in phosphate buffered saline (i.e., PBS, 0.15 M NaCl and 0.01 M Na2 HPO4 at pH 7.2). The plate was washed five times in Tris buffered saline (i.e., TBS, 0.15 M NaCl and 0.05 M Tris-HCl at pH 8.5). Then, β2 -glycoprotein I (i.e., β2 -GPI) was added as […] of 2.3% (v/v) IgG-depleted human serum (Sigma Chemical Co.) and incubated for 2 hours at room temperature.
(§3) During this incubation, peptide solutions (around 2 mg/mL) were prepared by dissolving thioether cyclic peptides in 3% fish gelatin in TBS. The serums of patient ACA-6501, who has a GPL (i.e., IgG Phospholipid) score of 1500, and patient ACA-6701, who has a GPL score of 102, were diluted about 40-fold in 3% fish gelatin in TBS-PBS (1:1). Variable amounts of each of peptides were combined with 22 mL of each of the diluted human serums and then made up to the final volume of 220 mL with 3% fish gelatin in TBS-PBS (1:1). For each peptide, at least four peptide concentrations were employed and each data point was determined in duplicate.
(§4) After 5 washes with TFBS, 100 mL of the peptide/human serum solution was added and the microplate was agitated at 40 rpm in an orbital shaker (American Scientific, Rotator V) for one hour at room temperature. The plate was washed extensively with TBS (5 times) and 100 mL of diluted (1/1000) alkaline phosphatase-conjugated goat anti-human IgG (Zymed, South San Francisco, Calif.) in 0.5% (w/v) BSA-TBS was added to each well (i.e., bovine serum albumin, BSA). The plate was then incubated for one hour at room temperature followed by addition of […]/well of PPMP solution (3 g/L phenolphthalein monophosphate plus 26.7 g/L 2-amino-2-methyl-1-propanol in water). The plate was allowed to develop at room temperature for 21 min and the reaction was stopped by adding 50 mL of 0.2 M Na2 HPO4 (Mallinckrodt) to each well. Blanks consisted of protein-coated wells that received similar treatment except human serum was not added to these wells. The plate was read at 550 nm using a microplate reader (Bio-Tek Instruments, Model EL 311).
(§5) Absorbance vs. amount of peptide added was plotted using Graph Pad Prism (Graph Pad Software, Inc.). The amount of peptide that inhibited the human serum's binding by 50%, known as IC50, was calculated from the graph at the intersection of half-maximal absorbance with amount of peptide added.

[2] = biological target: anticardiolipin antibody (serum of patient ACA-6701); test: competitive ELISA, binding of patient ACA-6701 serum to cardiolipin/β2-GPI coated plate; conditions: amount of peptide that inhibited the human serum's binding by 50%; serum of patient ACA-6701 (GPL score 102)
Experimental: as §1, §2, §3, §4, §5

CC(C)C[C@@H]1NC(=O)[C@H](CCCCN)NC(=O)CNC(=O)[C@H](CC(C)C)NC(=O)[C@H](C(C)C)NC(=O)CNC(=O)[C@H](CC(C)C)NC(=O)[C@H](NC(=O)[C@@H]2CCCN2C(=O)CN)CSCC[C@@H](C(=O)N2CCC[C@H]2C(=O)NCC(=O)O)NC1=O (single isomer, unassigned) [d-2G3-METE]
IC50 [1]: 100 µM | IC50 [2]: 436 µM

CC(C)C[C@@H]1NC(=O)[C@@H](NC(=O)[C@@H]2CCCN2C(=O)CN)CSCC[C@@H](C(=O)N2CCC[C@H]2C(=O)NCC(=O)O)NC(=O)[C@H](CC(C)C)NC(=O)[C@H](CCCCN)NC(=O)CNC(=O)[C@H](CC(C)C)NC(=O)[C@H](C(C)C)NC(=O)CNC1=O (single isomer, unassigned) [l-2G3-METE]
IC50 [1]: 209 µM | IC50 [2]: 486 µM

CC(C)C[C@@H]1NC(=O)C(NC(=O)[C@@H]2CCCN2C(=O)CN)CSC[C@@H](C(=O)N2CCC[C@H]2C(=O)NCC(=O)O)NC(=O)[C@H](CC(C)C)NC(=O)[C@H](CCCCN)NC(=O)CNC(=O)[C@H](CC(C)C)NC(=O)[C@H](C(C)C)NC(=O)CNC1=O (stereo partly shown) [2G3-MMTE]
IC50 [1]: > 678 µM | IC50 [2]: > 678 µM

CC(C)C[C@@H]1NC(=O)[C@@H](NC(=O)[C@@H]2CCCN2C(=O)CNC(=O)[C@H](C)N)CCSC[C@@H](C(=O)N2CCC[C@H]2C(=O)NCC(=O)O)NC(=O)[C@H](CC(C)C)NC(=O)[C@H](CCCCN)NC(=O)CNC(=O)[C@H](CC(C)C)NC(=O)[C@H](C(C)C)NC(=O)CNC1=O [3G3-EMTE] (H-AGP[Abu(4-yl)]LGVLGKLCPG-OH; thioether 4-12; N-terminus and C-terminus assumed)
IC50 [1]: ~1120 µM

CC(C)C[C@@H]1NC(=O)C(NC(=O)[C@@H]2CCCN2C(=O)CNC(=O)[C@H](C)N)CSC[C@@H](C(=O)N2CCC[C@H]2C(=O)NCC(=O)O)NC(=O)[C@H](CC(C)C)NC(=O)[C@H](CCCCN)NC(=O)CNC(=O)[C@H](CC(C)C)NC(=O)[C@H](C(C)C)NC(=O)CNC1=O (stereo partly shown) [3G3-MMTE]
IC50 [1]: ~1050 µM | IC50 [2]: ~1050 µM

CC(C)C[C@@H]1NC(=O)[C@H](CCCCN)NC(=O)CNC(=O)[C@H](CC(C)C)NC(=O)[C@H](C(C)C)NC(=O)CNC(=O)[C@H](CC(C)C)NC(=O)[C@@H](N)CCSCC[C@@H](C(N)=O)NC1=O [G3-EETE] (H-[hCys]LGVLGKL[Abu(4-yl)]-NH2; thioether 1-9)
IC50 [1]: 89 µM | IC50 [2]: 40 µM

CC(C)C[C@@H]1NC(=O)[C@H](CCCCN)NC(=O)CNC(=O)[C@H](CC(C)C)NC(=O)[C@H](C(C)C)NC(=O)CNC(=O)[C@H](CC(C)C)NC(=O)[C@@H](N)CCSC[C@@H](C(N)=O)NC1=O [G3-EMTE] (H-[Abu(4-yl)]LGVLGKLC-NH2; thioether 1-9)
IC50 [1]: 52 µM | biological activity in comparison with the corresponding disulfide cyclic peptide ([1]; general statement on Table 1 (sera ACA-6501 and ACA-6701)): more active than the disulfide peptide G3 | activity relative to disulfide peptide G3 ([1]; patient ACA-6501): about twice as active as G3 | IC50 [2]: 34 µM

CC(C)C[C@@H]1NC(=O)[C@H](CCCCN)NC(=O)CNC(=O)[C@H](CC(C)C)NC(=O)[C@H](C(C)C)NC(=O)CNC(=O)[C@H](CC(C)C)NC(=O)[C@@H](N)CSCC[C@@H](C(N)=O)NC1=O [G3-METE] (H-CLGVLGKL[Abu(4-yl)]-NH2; thioether 1-9)
IC50 [1]: 104 µM | IC50 [2]: 36 µM

CC(C)C[C@@H]1NC(=O)C(N)CSC[C@@H](C(N)=O)NC(=O)[C@H](CC(C)C)NC(=O)[C@H](CCCCN)NC(=O)CNC(=O)[C@H](CC(C)C)NC(=O)[C@H](C(C)C)NC(=O)CNC1=O (stereo partly shown) [G3-MMTE]
IC50 [1]: 126 µM | IC50 [2]: 57 µM

Source: patent publication US6031073A, “Cyclic polypeptides comprising a thioether linkage and methods for their preparation” (La Jolla Pharmaceutical Company, priority 1997, dated 2000)
